This note sets out measurements from patent publication US6723741B2, “Benzimidazoles and benzothiazoles and uses thereof” (Synaptic Pharmaceutical Corporation, priority 1996, dated 2004).

In test [1] the target is T1, human α1B adrenergic receptor (Homo sapiens, UniProt P35368).
T1 construct: The entire coding region of α1B (1563 bp); expressed in transfected cells
T1 sequence (P35368 1-520): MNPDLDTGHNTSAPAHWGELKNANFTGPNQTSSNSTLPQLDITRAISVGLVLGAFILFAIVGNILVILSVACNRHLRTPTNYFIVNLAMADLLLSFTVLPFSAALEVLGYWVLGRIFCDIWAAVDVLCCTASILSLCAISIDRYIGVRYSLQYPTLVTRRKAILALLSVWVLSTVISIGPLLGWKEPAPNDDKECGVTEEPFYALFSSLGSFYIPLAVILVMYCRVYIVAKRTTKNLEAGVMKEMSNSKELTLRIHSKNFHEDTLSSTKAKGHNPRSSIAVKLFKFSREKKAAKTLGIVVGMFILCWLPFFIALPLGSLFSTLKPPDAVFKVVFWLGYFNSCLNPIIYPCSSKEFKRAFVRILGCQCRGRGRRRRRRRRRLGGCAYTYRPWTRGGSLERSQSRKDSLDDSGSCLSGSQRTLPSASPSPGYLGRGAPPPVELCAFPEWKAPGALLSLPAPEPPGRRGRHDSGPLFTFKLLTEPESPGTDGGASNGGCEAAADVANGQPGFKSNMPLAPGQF
Nature of the test: Radioligand binding assay, [3H]prazosin competition.

Test [2] addresses T2, human α1C adrenergic receptor (Homo sapiens, UniProt P35348).
T2 construct: expressed in transfected cells
T2 sequence (P35348 1-466): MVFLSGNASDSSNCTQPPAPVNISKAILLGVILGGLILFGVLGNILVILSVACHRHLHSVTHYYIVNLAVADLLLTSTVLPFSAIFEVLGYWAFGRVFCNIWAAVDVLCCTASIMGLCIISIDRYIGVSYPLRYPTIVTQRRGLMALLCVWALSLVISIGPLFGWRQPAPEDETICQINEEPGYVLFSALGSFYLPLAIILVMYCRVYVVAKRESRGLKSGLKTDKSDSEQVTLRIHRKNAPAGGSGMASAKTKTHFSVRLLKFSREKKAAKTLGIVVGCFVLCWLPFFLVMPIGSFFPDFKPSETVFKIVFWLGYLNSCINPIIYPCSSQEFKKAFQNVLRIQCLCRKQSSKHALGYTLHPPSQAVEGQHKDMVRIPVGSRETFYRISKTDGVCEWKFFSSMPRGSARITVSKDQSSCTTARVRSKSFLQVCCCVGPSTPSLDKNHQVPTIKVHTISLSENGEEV
The test is described as above. The conditions noted are these: cloned human α1C (old nomenclature; = α1A), LM(tk-) cell membranes, read-out: pKi Alpha-1 C (converted). As for the experimental part: Equilibrium competition binding assays were performed with membrane preparations from cultured LM(tk^−) cells stably transfected with the cloned human alpha adrenoreceptor subtypes except for α2b, which was expressed in Y-1 cells, using [^3H] prazosin for α1 receptors and [^3H] rauwolscine for α2 receptors. Further details of pharmacological evaluations of claimed compounds are described in Example 21.
The cloned human alpha-1 adrenergic receptor subtypes referred to throughout this application as α1A, α1B, and α1C have recently been assigned new subtype designations by the IUPHAR Nomenclature Committee as outlined in the 1995 Receptor and Ion Channel Nomenclature Supplement (Watson and Girdlestone, 1995). In the new nomenclature system the cloned human α1A receptor referred to herein was given the appellation “α1D,” while the cloned human α1C receptor referred to herein was given the appellation “α1A”. However, throughout this application and the supporting tables and figures the old nomenclature will be used to describe the cloned human alpha-1 adrenergic receptor subtypes. The old nomenclature is used throughout this application because stable cell lines expressing the cloned human alpha-1 adrenergic receptors were produced and deposited with the ATCC according to the Budapest Treaty for the Deposit of Microorganisms, under designations assigned before the nomenclature change.
The entire coding region of α1C (1401 bp), including 400 basepairs of 5′ untranslated sequence (5′ UT) and 200 p of 3′ untranslated sequences (3′ UT), was cloned into the KpnI site of the polylinker-modified pCEXV-3-derived eukaryotic expression vector, EXJ.RH. The construct involved ligation three partial overlapping fragments: a 5′ 0.6 kb HincII genomic clone, a central 1.8 EcoRI hippocampal cDNA clone, and a 3′ 0.6 Kb PstI genomic clone. The hippocampal cDNA fragment overlaps with the 5′ and 3′ genomic clones so that the HincII nad PstI sites at the 5′ and 3′ ends of the cDNA clone, respectively, were utilized for ligation. This full-length clone was cloned into the KpnI site of the expression vector, using the 5′ and 3′ KpnI sites of the fragment, derived from vector (i.e., pBluescript) and 3′-untranslated sequences, respectively. Stable cell lines were produced and selected as described above.
Transfected cells from culture flasks were scraped into 5 mL of 5 mM Tris-HCl, 5 mM EDTA, pH 7.5, and lysed by sonication. The cell lysates were centrifuged at 1000 rpm for 5 min at 4° C., and the supernatant was centrifuged at 30,000×g for 20 min at 4° C. The pellet was suspended in 50 mM Tris-HCl, 1 mM MgCl2, and 0.1% Ascorbic acid at pH 7.5. Binding of α2 antagonist [^3H] rauwolscine ([…]) to membrane preparations of LM(tk−) cells was done in a final volume of 0.25 mL and incubated at 37° C. for 20 min. Nonspecific binding was determined in the presence of 10 μM phentolamine. The reaction was stopped by filtration through GF/B filters using a cell harvester.

Test [3] deals with T3, human α2B adrenergic receptor (Homo sapiens, UniProt P18089).
T3 construct: expressed in transfected cells
T3 sequence (P18089 1-450): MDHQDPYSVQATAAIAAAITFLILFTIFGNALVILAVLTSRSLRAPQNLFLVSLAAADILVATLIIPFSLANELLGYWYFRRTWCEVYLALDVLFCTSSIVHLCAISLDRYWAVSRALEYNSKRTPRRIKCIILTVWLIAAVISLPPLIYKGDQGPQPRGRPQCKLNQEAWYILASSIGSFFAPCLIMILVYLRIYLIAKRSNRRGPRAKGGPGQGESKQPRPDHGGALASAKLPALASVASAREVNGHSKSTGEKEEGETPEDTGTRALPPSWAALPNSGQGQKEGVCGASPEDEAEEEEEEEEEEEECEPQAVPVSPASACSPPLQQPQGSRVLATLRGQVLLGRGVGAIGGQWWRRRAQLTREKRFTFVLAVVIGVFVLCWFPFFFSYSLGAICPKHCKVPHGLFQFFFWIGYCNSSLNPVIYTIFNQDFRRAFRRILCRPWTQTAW
Kind of test: Agonist activity: inhibition of forskolin-stimulated cAMP synthesis. It is filed as cell-based. The conditions noted are these: for I.A (Intrinsic Activity) Alpha-2 B: maximum activity relative to maximum activity induced by norepinephrine, human α2B.

Setting [4] is: cloned human α1B, LM(tk-) cell membranes, [3H]prazosin, read-out: pKi Alpha-1 B (converted).
[5] abbreviates: inhibition of forskolin-stimulated cAMP, stably transfected cells expressing human α2B, read-out: pEC50 Alpha-2 B (converted).

The structures appear in SMILES notation. Read-outs that look alike come from different tables or passages of the source.

In the case of `Brc1cc(NC2=NCCN2)cc2cc[nH]c12` [Example 2, 7-Bromo-5-(2-imidazolin-2-ylamino)indole], the Ki is 26.9 nM in test [1] (setting [4]) and 19.1 nM in test [2]. Besides, in test [3] (setting [5]), the EC50 was 1.91 nM. In addition, in test [3], the “I.A (Intrinsic Activity) Alpha-2 B” value is on record as 0.75.
For `N#Cc1cc(NC2=NCCN2)cc2cc[nH]c12` [Example 5, 7-Cyano-5-(2-imidazolin-2-ylamino)indole], the Ki in test [1] (setting [4]) was 12600 nM; in test [2] it was 1450 nM. In addition, the EC50 in test [3] (setting [5]) is 316 nM. Further, the “I.A (Intrinsic Activity) Alpha-2 B” value in test [3] came out at 0.60.
With `CC(=O)c1cc(NC2=NCCN2)cc2cc[nH]c12` [Example 6, 7-Acetyl-5-(2-imidazolin-2-ylamino)indole], the values for the Ki in test [1] (setting [4]) and in test [2] were 56.2 nM and 186 nM, respectively. Further, in test [3] (setting [5]), the EC50 is 81.3 nM. Besides, the “I.A (Intrinsic Activity) Alpha-2 B” value in test [3] was determined as 0.70.
As to `c1nc2cc(NC3=NCCN3)ccc2s1` [Example 13, 5-(2-Imidazolin-2-ylamino)benzothiazole], the Ki in test [1] (setting [4]) and in test [2] was 708 nM in each case. The EC50 in test [3] (setting [5]) was 10.2 nM. For the same compound, the “I.A (Intrinsic Activity) Alpha-2 B” value in test [3] is 0.82.
Take `c1nc2ccc(NC3=NCCN3)cc2s1` [Example 14, 6-(2-Imidazolin-2-ylamino)benzothiazole]: the Ki was 3630 nM in test [1] and 2340 nM in test [2]. This compound gave an EC50 in test [3] of 14.1 nM. For the same compound, the “I.A (Intrinsic Activity) Alpha-2 B” value in test [3] was found to be 0.47.
Turning to `c1nc2ccc(NC3=NCCS3)cc2s1` [Example 15, 6-(2-Thiazolin-2-ylamino)benzothiazole], the Ki is 7240 nM in test [1] and 5750 nM in test [2]. Also, the EC50 in test [3] (setting [5]) was 138 nM. For the same compound, in test [3], the “I.A (Intrinsic Activity) Alpha-2 B” value came out at 0.57.
